The numbers were not newly measured in patent US20180353602A1, “COMBINATION OF HDAC INHIBITOR AND ANTI-PD-L1 ANTIBODY FOR TREATMENT OF CANCER” (Syndax Pharmaceuticals, Inc., priority 2015, published 2018), which cites them from elsewhere.

Like-named read-outs stand apart in the source and are kept apart here.

For data set [1] the following is noted: in vivo.
Data set [2] deals with squamous or non-squamous non small cell lung cancer (NSCLC). The settings on record: ≤1, 10, 15, and 25 mg/kg every 3 weeks for up to 1 year.

Take `Nc1ccccc1NC(=O)c1ccc(CNC(=O)OCc2cccnc2)cc1` [Entinostat, N-(2-aminophenyl)-4-[N-(pyridine-3-yl)methoxycarbonylamino-methyl]-benzamide]: the half-life entry in data set [1] is “about 100 hours”.

For the compound “MPDL3280A: human anti-PD-L1 mAb directed against the protein ligand PD-L1, with an engineered Fc domain minimizing ADCC”, the figures for the “24-week progression free survival (PFS) rate” value in data set [2] (non-squamous cell NSCLC patients) and in data set [2] (squamous cell NSCLC patients) were 46% and 44%, respectively.
